Assay results as given in US4990613A, “(1R,5S,6S)-2-[(6,7-dih ydro-5H-pyrazolo[1,2-a][1,2,4]triazolium-6-yl)]thio-6-[R-1-hydroxyethyl]- 1-methyl-carbapenem-3-carboxylate and intermediate therefor” (Lederle (Japan), Ltd., priority 1987, dated 1991).
Values after ≈ are worked out from the molar mass of the structure shown. Where two headings read alike, the source gives them in different places.

Experiments:
[1] = system: Pseudomonas aeruginosa NCTC 10490; test: Antibacterial test, agar plate dilution method; conditions: Pseudomonas aeruginosa, NCTC10490, 18 h
[2] = system: Serratia marcescens IAM1184; test: Antibacterial test, agar plate dilution method; conditions: Serratia marcescens, IAM1184, 18 h
[3] = system: Klebsiella pneumoniae PCI-602; test: Antibacterial test, agar plate dilution method; conditions: Klebsiella pneumoniae, PCI602, 18 h
[4] = system: Serratia marcescens L-82; test: Antibacterial activity against clinically isolated β-lactamase producing strains; format: cell-based; conditions: Serratia marcescens, L82; cephalosporinase producing strain, 18 to 20 hours; read-out: MIC
Procedure: (§1) A solution of a cephalosporinase producing strain stored by Episome Research Institute, which was prepared by incubating the strain in a sensitivity test broth (STB; product of Nissui K.K.) for 18 hours, was diluted with a fresh STB solution to contain 10^5 cells per milliliter and the diluted solution was then inoculated as spots with a microplanter on a sensitivity disk agar-N (SDA; product of Nissui K.K.) containing a test compound. The disk agar was then incubated for 18 to 20 hours. A minimum inhibitory concentration was determined as a minimum concentration in which the test microorganism had no longer grown after a 18 to 20 hour incubation.

[5] = system: Klebsiella oxytoca GN 10650; test: as above; format: cell-based; conditions: Klebsiella oxytoca, GN10650; cephalosporinase producing strain, 18 to 20 hours; read-out: MIC
Procedure: as §1

[6] = system: Citrobactor freundii GN 346; test: as above; format: cell-based; conditions: cephalosporinase producing strain, 18 to 20 hours; read-out: MIC
Procedure: as §1

[7] = system: Serratia marcescens GN 10857; test: as above; format: cell-based; conditions: Serratia marcescens, GN10857
Procedure: as §1

[8] = system: Proteus vulgaris GN 7919; test: as above; format: cell-based; conditions: Proteus vulgaris, GN7919
Procedure: as §1

[9] = system: Providencia rettgeri GN 5284; test: as above; format: cell-based; conditions: Providencia rettgeri, GN5284; cephalosporinase producing strain, 18 to 20 hours; read-out: MIC
Procedure: as §1

[10] = system: Pseudomonas cepacia GN 11164; test: as above; format: cell-based; conditions: Burkholderia cepacia, GN11164
Procedure: as §1

[11] = system: Pseudomonas aeruginosa GN 10362; test: as above; format: cell-based; conditions: Pseudomonas aeruginosa, GN10362
Procedure: as §1

[12] = system: Proteus morganii GN 5407; test: as above; format: cell-based; conditions: Morganella morganii, GN5407
Procedure: as §1

[13] = system: Pseudomonas aeruginosa GN 10367; test: as above; format: cell-based; conditions: Pseudomonas aeruginosa, GN10367
Procedure: as §1

[14] = system: Proteus morganii GN 5375; test: as above; format: cell-based; conditions: Morganella morganii, GN5375
Procedure: as §1

[15] = system: Proteus morganii GN 5307; test: as above; format: cell-based; conditions: Morganella morganii, GN5307; cephalosporinase producing strain, 18 to 20 hours; read-out: MIC
Procedure: as §1

[16] = system: Providencia rettgeri GN 4762; test: as above; format: cell-based; conditions: Providencia rettgeri, GN4762; cephalosporinase producing strain, 18 to 20 hours; read-out: MIC
Procedure: as §1

[17] = system: Bacillus subtilis ATCC6633; test: Antibacterial test, agar plate dilution method; conditions: Bacillus subtilis, ATCC6633, 18 h
[18] = system: Salmonella schottmuelleri 8006; test: Antibacterial test, agar plate dilution method; conditions: Salmonella, 8006, 18 h
[19] = system: Enterobacter aerougenes ATCC13048; test: Antibacterial test, agar plate dilution method; conditions: Enterobacter, ATCC13048, 18 h
[20] = system: Pseudomonas aeruginosa IFO 3445; test: Antibacterial test, agar plate dilution method; conditions: Pseudomonas aeruginosa, IFO3445, 18 h
[21] = system: Staphylococcus aureus MS352; test: Antibacterial test, agar plate dilution method; conditions: Staphylococcus aureus, MS352, 18 h
[22] = system: Salmonella paratyphi 1015; test: Antibacterial test, agar plate dilution method; format: cell-based; conditions: Salmonella enterica, PARATYPHI, 18 h
[23] = system: Escherichia coli K12 C600; test: Antibacterial test, agar plate dilution method; format: cell-based; conditions: Escherichia coli, K12C600; 37° C., 18 hours, MH agar; read-out: MIC
[24] = system: Salmonella typhimurium IID971; test: Antibacterial test, agar plate dilution method; conditions: Salmonella enterica, 18 h
[25] = system: Staphylococcus aureus Terajima; test: Antibacterial test, agar plate dilution method; conditions: Staphylococcus aureus, 18 h
[26] = system: Salmonella enteritidis G14; test: Antibacterial test, agar plate dilution method; conditions: Salmonella enterica, ENTERITIDIS, 18 h
[27] = system: Escherichia coli NIHJ JC-2; test: Antibacterial test, agar plate dilution method; conditions: Escherichia coli, NIHJJC2, 18 h
[28] = system: Streptococcus pyogenes Cook; test: Antibacterial test, agar plate dilution method; conditions: Streptococcus pyogenes, 18 h
[29] = system: Micrococcus luteus ATCC9341; test: Antibacterial test, agar plate dilution method; conditions: Micrococcus luteus, ATCC9341, 18 h
[30] = system: Morganella morganii IFO3848; test: Antibacterial test, agar plate dilution method; conditions: Morganella morganii, IFO3848, 18 h
[31] = system: Providencia rettgeri IFO 3850; test: Antibacterial test, agar plate dilution method; conditions: Providencia rettgeri, IFO3850, 18 h
[32] = system: Enterobacter cloacae 963; test: Antibacterial test, agar plate dilution method; conditions: Enterobacter cloacae, 963, 18 h
[33] = cephalosporinase producing strain, 18 to 20 hours, read-out: MIC

Compound	MIC [1]	MIC [2]	MIC [3]	MIC [4]	MIC [5]	MIC [6]	MIC [9]	MIC [13]	MIC [15]	MIC [16]	MIC [17]	MIC [18]	MIC [19]	MIC [20]	MIC [21]	MIC [22]	MIC [23]	MIC [24]	MIC [25]	MIC [26]	other results
Cc1nnc(SCC2=C(C(=O)O)N3C(=O)[C@@H](NC(=O)Cn4cnnn4)[C@H]3SC2)s1 [CEZ]	> 100 µg/mL	> 100 µg/mL	0.78 µg/mL (≈ 1.72 µM)	0.39 µg/mL (≈ 0.858 µM)	0.2 µg/mL (≈ 0.44 µM)	25 µg/mL (≈ 55 µM)	0.2 µg/mL (≈ 0.44 µM)	3.13 µg/mL (≈ 6.89 µM)	0.2 µg/mL (≈ 0.44 µM)	0.78 µg/mL (≈ 1.72 µM)	0.1 µg/mL (≈ 0.22 µM)	0.78 µg/mL (≈ 1.72 µM)	> 100 µg/mL	> 100 µg/mL	0.1 µg/mL (≈ 0.22 µM)	1.56 µg/mL (≈ 3.43 µM)	0.78 µg/mL (≈ 1.72 µM)	0.78 µg/mL (≈ 1.72 µM)	0.05 µg/mL (≈ 0.11 µM)	0.78 µg/mL (≈ 1.72 µM)	MIC [7, 33]: 0.78 µg/mL (≈ 1.72 µM); MIC [8]: 3.13 µg/mL (≈ 6.89 µM); MIC [10, 33]: 0.78 µg/mL (≈ 1.72 µM); MIC [11]: 3.13 µg/mL (≈ 6.89 µM); MIC [12, 33]: 0.39 µg/mL (≈ 0.858 µM); MIC [14, 33]: 0.2 µg/mL (≈ 0.44 µM); MIC [27]: 0.78 µg/mL (≈ 1.72 µM); MIC [28]: 0.1 µg/mL (≈ 0.22 µM); MIC [29]: 0.39 µg/mL (≈ 0.858 µM); MIC [30]: 25 µg/mL (≈ 55 µM); MIC [31]: 12.5 µg/mL (≈ 27.5 µM); MIC [32]: > 100 µg/mL
C[C@@H](O)[C@H]1C(=O)N2C(C(=O)O)=C(SCCN=CN)C[C@H]12 [Imipenem]	0.78 µg/mL (≈ 2.61 µM)	0.39 µg/mL (≈ 1.3 µM)	0.39 µg/mL (≈ 1.3 µM)	0.2 µg/mL (≈ 0.668 µM)	0.2 µg/mL (≈ 0.668 µM)	0.39 µg/mL (≈ 1.3 µM)	0.39 µg/mL (≈ 1.3 µM)	1.56 µg/mL (≈ 5.21 µM)	0.78 µg/mL (≈ 2.61 µM)	0.39 µg/mL (≈ 1.3 µM)	0.025 µg/mL (≈ 0.0835 µM)	0.78 µg/mL (≈ 2.61 µM)	0.2 µg/mL (≈ 0.668 µM)	0.78 µg/mL (≈ 2.61 µM)	0.013 µg/mL (≈ 0.0434 µM)	1.56 µg/mL (≈ 5.21 µM)	3.13 µg/mL (≈ 10.5 µM)	0.39 µg/mL (≈ 1.3 µM)	< 0.006 µg/mL	0.78 µg/mL (≈ 2.61 µM)	MIC [7]: 3.13 µg/mL (≈ 10.5 µM); MIC [8, 33]: 0.39 µg/mL (≈ 1.3 µM); MIC [10]: 3.13 µg/mL (≈ 10.5 µM); MIC [11, 33]: 0.78 µg/mL (≈ 2.61 µM); MIC [12]: 3.13 µg/mL (≈ 10.5 µM); MIC [14]: 3.13 µg/mL (≈ 10.5 µM); MIC [27]: 0.1 µg/mL (≈ 0.334 µM); MIC [28]: < 0.006 µg/mL; MIC [29]: 0.025 µg/mL (≈ 0.0835 µM); MIC [30]: 0.39 µg/mL (≈ 1.3 µM); MIC [31]: 0.78 µg/mL (≈ 2.61 µM); MIC [32]: 0.2 µg/mL (≈ 0.668 µM)
